Source: patent US20250213649A1, “PEPTIDE HAVING ANTI-INFLAMMATORY AND ANTI-FIBROTIC ACTIVITIES AND USE THEREOF” (CAREGEN CO., LTD., priority 2022, published 2025)

Columns and labels:
MRC-5 cells = test: Inhibition of fibrosis gene expression induced by TGF-β1, RT-PCR, MRC-5 cells; type: cell-based; conditions: 5 ng/ml TGF-β1, peptide 10, 50, 100, 500 μM, 3 hours, RT-PCR (FIG. 7)
Procedure: MRC-5 cells (lung fibroblast cells) were seeded at 2×10^5 cells/well in a 12-well plate and used in the experiment. After culturing for 1 day with a culture medium containing 10% FBS, the culture medium was replaced with a culture medium without containing FBS to induce starvation for 4 hours. Cells of a normal group without being treated with any substances, a group treated with 5 ng/ml of TGF-β1 (negative control group), groups treated with 5 ng/ml of TGF-β1 and the peptide of Production Example 1 (10, 50, 100, 500 μM), and a group treated with 5 μg/ml of LPS and 10 μM of Dexamethasone (DEX) (positive control group) were treated with the above-described active substances and drugs, and then RNA was extracted after 3 hours to carry out RT-PCR. RNA was extracted from MRC-5 cells using an easy-BLUE™ Total RNA extraction kit (Qiagen, Germany). The extracted RNA was converted into cDNA using RT-PCR premix (iNtRON Biotechnology, Seongnam, Korea). After preparing a reaction mixture with PCR premix (iNtRON Biotechnology, Seongnam, Korea) and primers for each gene, PCR was carried out using a PCR machine (Eppendorf, Germany). Next, the mRNA expression pattern was determined by agarose gel electrophoresis.

A549 cells = test: ELISA of inflammatory cytokine proteins induced by IL-1β, A549 cells; type: cell-based, human; conditions: IL-1β 2 ng/ml, peptide 10, 50, 100, 500 μM, 72 hours, culture supernatant (FIG. 9a-9c)
Procedure: A549 cells (human alveolar basal epithelial cells) were seeded at 2×10^5 cells/well in a 12-well plate and used in the experiment. After culturing for 1 day with a culture medium containing 10% FBS, the culture medium was replaced with a culture medium without containing FBS to induce starvation for 4 hours. Cells of a normal group (NON) without being treated with any substances, a group treated with IL-1β (2 ng/ml) (negative control group, NC), groups treated with IL-1β (2 ng/ml) and the peptide of Production Example 1 (10, 50, 100, 500 μM), and a group treated with IL-1β (2 ng/ml) and Dexamethasone (DEX) (10 μM) (positive control group) were treated with active substances and drugs respectively, and then cultured for 72 hours. After cell culture, the supernatant obtained by centrifuging the culture solution at 4° C. and 3,000 rpm for 10 minutes was subjected to ELISA analysis using an IL-6 Quantikine ELISA Kit (R&D systems), an IL-8 Quantikine ELISA Kit (R&D systems), and an IL-1β Quantikine ELISA Kit (R&D systems) according to the method of use in the kit instructions, and then the absorbance was measured at 450 nm using a microplate reader.

[1] = BLM-induced pulmonary fibrosis model, body weight change; type: in vivo; conditions: BALB/c male mice with BLM-induced pulmonary fibrosis, peptide 1 mg/mouse intranasal three times a week for 14 days from 7th day (FIG. 13a)
Procedure: As shown in [Table 6] below, 8-week-old BALB/c male mice were divided into 4 groups of 5 mice each. On the 1st day, a Bleomycin solution ([…]/50 μl/mouse) was administered through the oropharynx to carry out one time of induction with BLM. Then, from the 7th day, the peptide of Production Example 1 (1 mg/mouse) was administered intranasally three times a week for 14 days, and Pirfeninone (2 mg/mouse) for a positive control group was administered orally three times a week for 14 days. On the 21st day of the induction with BLM, mice were sacrificed to obtain the bronchoalveolar lavage fluid and the lung tissue, which were used in the next analysis.

## KYLLVHRPYYRR [peptide of Production Example 1]
MRC-5 cells
  expression of Collagen 1A1 gene: decreased the expression of genes in a concentration-dependent manner
  expression of Fibronectin 1 gene: decreased the expression of genes in a concentration-dependent manner
  expression of Tenascin C gene: decreased the expression of genes in a concentration-dependent manner
  expression of α-SMA gene: decreased the expression of genes in a concentration-dependent manner
A549 cells
  expression level of IL-1β (ELISA): decreases the expression levels of IL-1B, IL-6, and IL-8 in a concentration-dependent manner
  expression level of IL-6 (ELISA): decreases the expression levels of IL-1B, IL-6, and IL-8 in a concentration-dependent manner
  expression level of IL-8 (ELISA): decreases the expression levels of IL-1B, IL-6, and IL-8 in a concentration-dependent manner
[1]
  body weight: recovered again
